Data taken from paper PMC11302729, “Repurposing Hsp90 inhibitors as antimicrobials targeting two-component systems identifies compounds leading to loss of bacterial membrane integrity” (Microbiology Spectrum, 2024).
In brackets after ≈: the same amount, converted by molar mass. Several values for one entry are separate records, joined by “and”; a condition that tells them apart may be missing. Identical values can stand only once. Like-named read-outs stand apart in the source and are kept apart here.

Key:
Type in all cases: cell-based
[1] = in vitro; conditions: human
Summary of the method: (§1)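 Cytotoxicity was measured in HEK293 cells (5 × 10^4/well, precultured 24 h) exposed 24 h at 37 °C to compounds from a twofold dilution series made at 100–3.2 μg/mL in serum-free, phenol-red-free DMEM. Viability was read with 10% Alamar Blue (45 min, ex 541/em 590 nm) relative to 1% DMSO vehicle. Curves: four-parameter fit, bottom constrained 0.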

[2] = tested on: HEK293 cells; experiment: in vitro; conditions: for Selectivity Index: LC50/MIC (HEK293 / S. aureus); for LC20: human, 24 h
Summary of the method: as §1

[3] = tested on: Enterococcus faecalis vanA (strain E0155); experiment: MIC (microdilution) against E. faecalis; conditions: for MIC: Enterococcus faecalis, read-out: MIC E. faecalis; for MIC E. faecalis: Table ST1
Summary of the method: (§2)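 Optical density at 600 nm after 18 h incubation at 37°C determined the MIC as the lowest inhibitory concentration. Twofold dilutions in Mueller-Hinton broth covered 50–0.39 µg/mL final.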

[4] = tested on: Pasteurella haemolytica ATCC 29701; experiment: MIC (microdilution) against P. haemolytica; conditions: for MIC: Mannheimia haemolytica
Summary of the method: as §2

[5] = tested on: Pseudomonas aeruginosa ATCC 27853; experiment: MIC (microdilution) against P. aeruginosa; conditions: for MIC: Pseudomonas aeruginosa; for MIC P. aeruginosa: Table ST1
Summary of the method: as §2

[6] = tested on: Escherichia coli ATCC 25922; experiment: MIC (microdilution) against E. coli; conditions: for MIC: Escherichia coli; for MIC E. coli: Table ST1
Summary of the method: as §2

[7] = tested on: Escherichia coli JW5503 (ΔtolC); experiment: MIC (microdilution) against E. coli JW5503; conditions: for MIC: Escherichia coli, read-out: MIC E. coli JW5503; for MIC E. coli JW5503: Table ST1, ΔtolC mutant
Summary of the method: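 Tested on E. coli JW5503 (ΔtolC, no TolC efflux) and D21f2 (defective LPS inner core, more permeable outer membrane) per EUCAST microdilution in Mueller-Hinton broth, twofold dilutions 50 to 0.39 µg/mL, 1:100-diluted overnight culture. 18 h at 37°C. MIC = lowest concentration with no growth by OD600.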

[8] = tested on: Escherichia coli D21f2 with a truncated LPS barrier; experiment: MIC (microdilution) against E. coli D21f2
Excerpt: We also tested the inhibitory activity of compounds in two different E. coli mutants: (i) E. coli JW5503 that lacks TolC efflux pumps and (ii) E. coli D21f2 that has a defective LPS inner core increasing permeability of the outer membrane. E. coli D21f2 has a slightly higher susceptibility to DPP compounds than E. coli ATCC25922.
Staphylococcus aureus str. Newman, Enterococcus faecalis vanA (strain E0155), Enterococcus faecium vanA (strain E1654), Escherichia coli ATCC 25922, Escherichia coli D21f2 with a truncated LPS barrier, Escherichia coli JW5503 (ΔtolC) ([49]), Pseudomonas aeruginosa ATCC 27853, and Pasteurella haemolytica ATCC 29701 were grown in Mueller-Hinton Broth (MHB) (Oxoid, Basingstoke, UK) and incubated at 37°C.
The minimal inhibitory concentration was determined using the microdilution method following the guidelines of the European Committee on Antimicrobial Susceptibility Testing ([50]). Briefly, a series of twofold dilutions in MHB of each compound were made in a 96-well plate, with final concentrations ranging from 50 to 0.39 µg/mL in 100 µL final volume per well. A hundred microliters of 1:100 dilution of an overnight culture of the correspondent bacteria in MHB was added to each well. Plates were incubated for 18 hours at 37°C. MIC was recorded as the lowest concentration where no growth was detected as measured by optical density at 600 nm (OD600) using Spectramax M5 (Molecular Devices LLC, San Jose, CA, USA). […] Wells containing bacteria with or without 1% DMSO and medium alone were included as controls in every plate.

[9] = ATCC29701, read-out: MIC P. haemolytica, Table 1
[10] = ATCC29701, read-out: MIC P. haemolytica, Table ST1
[11] = ATCC27853, Table 1, read-out: MIC P. aeruginosa
[12] = ATCC25922, Table 1, read-out: MIC E. coli
[13] = ATCC27853, read-out: MIC P. aeruginosa
[14] = ATCC25922, read-out: MIC E. coli

Row | Structure (SMILES) | CC50 at 24 h [1] | Selectivity Index [2] | MIC [3] | MIC E. faecalis [3] | MIC [4, 9] | MIC [4, 10] | MIC [5, 11] | MIC P. aeruginosa [5] | MIC [6, 12] | MIC E. coli [6] | MIC [7] | MIC E. coli JW5503 [7] | MIC ([8]; read-out: MIC E coli D21f2) | MIC ([8]; read-out: MIC E. coli D21f2) | LC20 [2] | MIC ([4]; ATCC29701, Table 1, read-out: MIC P. haemolytica) | MIC P. haemolytica ([4]; Table ST1) | MIC [5, 13] | MIC [6, 14]
1 | COc1ccc(-c2[nH]nc(C(F)(F)F)c2-c2ccccc2)c(O)c1 [DPP-2] | 7.34 µg/mL and 21.9 µM | 0.60 | 25 µg/mL (≈ 74.8 µM) | 25 µg/mL (≈ 74.8 µM) | 50 µg/mL (≈ 150 µM) | 50 µg/mL (≈ 150 µM) | > 250 µg/mL | >250 µg/mL | > 250 µg/mL | >250 µg/mL | 6.25 µg/mL (≈ 18.7 µM) | 6.25 µg/mL (≈ 18.7 µM) | 50 µg/mL (≈ 150 µM) | 50 µg/mL (≈ 150 µM) | – | – | – | – | –
2 | Oc1ccc(-c2n[nH]c(C(F)(F)F)c2-c2ccc(Cl)cc2)c(O)c1 [DPP-5] | 12.9 µg/mL and 36.3 µM | 4.13 | 12.5 µg/mL (≈ 35.2 µM) | 12.5 µg/mL (≈ 35.2 µM) | – | – | > 250 µg/mL | >250 µg/mL | 50 µg/mL (≈ 141 µM) | 50 µg/mL (≈ 141 µM) | 3.12 µg/mL (≈ 8.8 µM) | 3.12 µg/mL (≈ 8.8 µM) | 50 µg/mL (≈ 141 µM) | 50 µg/mL (≈ 141 µM) | 5 µg/mL (≈ 14.1 µM) | 12.5 µg/mL (≈ 35.2 µM) | 12.5 µg/mL (≈ 35.2 µM) | – | –
3 | COc1ccc(-c2[nH]nc(C(F)(F)F)c2-c2ccc(Cl)cc2)c(O)c1 [DPP-6] | 14.3 µg/mL and 38.6 µM | 4.58 | 6.25 µg/mL (≈ 16.9 µM) | 6.25 µg/mL (≈ 16.9 µM) | 12.5 µg/mL (≈ 33.9 µM) | 12.5 µg/mL (≈ 33.9 µM) | > 250 µg/mL | >250 µg/mL | > 250 µg/mL | >250 µg/mL | 3.12 µg/mL (≈ 8.46 µM) | 3.12 µg/mL (≈ 8.46 µM) | 25 µg/mL (≈ 67.8 µM) | 25 µg/mL (≈ 67.8 µM) | 6 µg/mL (≈ 16.3 µM) | – | – | – | –
4 | CCOc1ccc(-c2[nH]nc(C(F)(F)F)c2-c2ccc(Cl)cc2)c(O)c1 [DPP-7] | 10.8 µg/mL and 28.5 µM | 3.47 | 3.12 µg/mL (≈ 8.15 µM) | 3.12 µg/mL (≈ 8.15 µM) | 25 µg/mL (≈ 65.3 µM) | 25 µg/mL (≈ 65.3 µM) | > 250 µg/mL | >250 µg/mL | > 250 µg/mL | >250 µg/mL | 3.12 µg/mL (≈ 8.15 µM) | 3.12 µg/mL (≈ 8.15 µM) | 25 µg/mL (≈ 65.3 µM) | 25 µg/mL (≈ 65.3 µM) | – | – | – | – | –
5 | COc1ccc(-c2c(C(F)(F)F)n[nH]c2-c2ccc(O)cc2O)cc1 [DPP-12] | 31.7 µg/mL and 90.7 µM | 2.54 | 50 µg/mL (≈ 143 µM) | 50 µg/mL (≈ 143 µM) | 50 µg/mL (≈ 143 µM) | 62.5 µg/mL (≈ 178 µM) | – | >250 µg/mL | – | >250 µg/mL | 12.5 µg/mL (≈ 35.7 µM) | 12.5 µg/mL (≈ 35.7 µM) | > 50 µg/mL | > 250 µg/mL | – | – | – | > 250 µg/mL | > 250 µg/mL
6 | COc1ccc(-c2c(C(F)(F)F)n[nH]c2-c2ccc(OC)cc2O)cc1 [DPP-13] | 29.9 µg/mL and 82.1 µM | 2.39 | 25 µg/mL (≈ 68.6 µM) | 25 µg/mL (≈ 68.6 µM) | > 250 µg/mL | > 250 µg/mL | – | >250 µg/mL | – | >250 µg/mL | 12.5 µg/mL (≈ 34.3 µM) | 12.5 µg/mL (≈ 34.3 µM) | > 50 µg/mL | > 250 µg/mL | – | – | – | > 250 µg/mL | > 250 µg/mL
